Experimental data: the supplement of paper PMC10307832

Tests used:
Experiment in all cases: relative viability (nuclei count vs DMSO), 5 days (fraction); higher = more cells survive
Axitinib = compound: CNC(=O)c1ccccc1Sc1ccc2c(/C=C/c3ccccn3)n[nH]c2c1 [Axitinib]
Procedure, shortened: (§1)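 Only plates meeting two conditions passed: control CV below 25% and at least one doubling. Lung cancer cell lines, kept overnight at 37 °C in 1536-well plates, were pinned with five library-drug doses (not always all listed) √10 apart on vehicle-anchored plates and grown 5 days without medium change. A one-step fix, permeabilisation and Hoechst stain preceded 4× imaging and MetaXpress nuclear counting. Viability equals treated-well nuclei divided by vehicle-well nuclei, as the median over plates.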

Pifithrin_alpha = compound: CC1=CC=C(C=C1)C(=O)CN2C3=C(CCCC3)SC2=N [Pifithrin_alpha]
Procedure, shortened: as §1

Bemcentinib = compound: Nc1nc(Nc2ccc3c(c2)CC[C@@H](N2CCCC2)CC3)nn1-c1cc2c(nn1)-c1ccccc1CCC2 [Bemcentinib]
Procedure, shortened: as §1

[1] = compound: CC1=CC=C(C=C1)C(=O)CN2C3=C(CCCC3)SC2=N [Pifithrin_alpha] + COc1cc2c(Oc3ccc(NC(=O)C4(C(=O)Nc5ccc(F)cc5)CC4)cc3F)ccnc2cc1OCCCN1CCOCC1 [Foretinib] (partner 0.25 µM)
Procedure, shortened: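 Lung cancer cell lines were seeded in 1536-well plates and dosed by pin tool the next day, with either a single drug or a fixed anchor-drug dose combined with five library-drug doses (not always all listed) spaced in √10 steps. Five days later, one step fixed the cells and stained their nuclei (final 0.05% Triton X-100, 1% formaldehyde, 1 ug/ml Hoechst), and nuclei were counted on 4× images. Relative viability is the nuclei count in treated wells divided by the count in vehicle wells, and each value is the median of duplicate plates.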

| Cell Line | relative viability (Axitinib; 0.005 µM) | relative viability (Axitinib; 0.01581 µM) | relative viability (Axitinib; 0.05 µM) | relative viability (Axitinib; 0.1581 µM) | relative viability (Axitinib; 0.5 µM) | relative viability (Pifithrin_alpha; 1 µM) | relative viability (Pifithrin_alpha; 3.162 µM) | relative viability (Pifithrin_alpha; 10 µM) | relative viability (Pifithrin_alpha; 31.62 µM) | relative viability (Pifithrin_alpha; 100 µM) | relative viability (Bemcentinib; 0.04 µM) | relative viability (Bemcentinib; 0.1265 µM) | relative viability (Bemcentinib; 0.4 µM) | relative viability (Bemcentinib; 1.265 µM) | relative viability (Bemcentinib; 4 µM) | relative viability ([1]; first compound 1 µM) | relative viability ([1]; first compound 3.162 µM) | relative viability ([1]; first compound 10 µM) | relative viability ([1]; first compound 31.62 µM) | relative viability ([1]; first compound 100 µM) |
| --- | --- | --- | --- | --- | --- | --- | --- | --- | --- | --- | --- | --- | --- | --- | --- | --- | --- | --- | --- | --- |
| A549 | 0.997 | 0.95 | 0.95 | 0.877 | 1.02 | 1.03 | 1.01 | 1 | 0.889 | 1.01 | 0.977 | 1.13 | 0.984 | 1.04 | 1.02 | 1.1 | 0.958 | 1.1 | 0.874 | 0.959 |
| NCI-H358 | 0.947 | 0.957 | 1.05 | 0.87 | 1.14 | 0.825 | 0.94 | 0.924 | 0.733 | 0.945 | 0.915 | 0.941 | 0.997 | 1.01 | 1.07 | 0.773 | 0.777 | 0.645 | 0.467 | 0.541 |
| NCI-H2342 | 0.975 | 1.14 | 1.01 | 1.09 | 0.775 | 0.916 | 0.928 | 0.884 | 0.976 | 0.929 | 0.949 | 1.06 | 1.01 | 0.932 | 1.01 | 1.14 | 1.01 | 0.953 | 1.09 | 1.01 |
| A-427 | 1.02 | 0.93 | 1.02 | 1.02 | 0.964 | 0.975 | 0.957 | 0.804 | 0.788 | 1.02 | 0.935 | 1.11 | 1.05 | 0.93 | 0.931 | 0.877 | 1.02 | 1.08 | 0.863 | 1.01 |
| NCI-H2126 | 0.979 | 0.991 | 0.993 | 1 | 0.953 | 0.638 | 0.862 | 0.884 | 0.85 | 0.822 | 1 | 1.03 | 1.03 | 1.04 | 1.11 | – | 0.988 | 0.946 | 0.96 | 1.1 |
| NCI-H647 | 1.14 | 0.97 | 1.03 | 0.968 | 1.15 | 0.949 | 0.916 | 0.889 | 0.722 | 0.849 | 1.06 | 1.09 | 0.989 | 0.971 | 1.03 | 1.07 | 1.25 | 1.04 | 0.724 | 1.11 |
| ChaGo-K-1 | 1.06 | 1.02 | 1.05 | 0.922 | 0.936 | 0.882 | 0.987 | 1 | 0.842 | 1.05 | 1.01 | 0.966 | 1.03 | 0.938 | 0.929 | 0.917 | 0.985 | 0.871 | 0.828 | 0.814 |
| UMC-11 | 1.03 | 0.943 | 0.956 | 0.935 | 0.899 | 0.965 | 0.949 | 1.04 | 0.907 | 1.23 | 0.982 | 1.13 | 1.08 | 0.871 | 0.995 | 0.965 | 1.13 | 1.19 | 1.04 | 1.43 |
| LOU-NH91 | 0.989 | 0.796 | 1.05 | 0.973 | 1 | 0.774 | 0.911 | 0.878 | 0.731 | 0.765 | 0.912 | 0.955 | 1 | 0.984 | 0.997 | 0.841 | 0.874 | 0.935 | 0.868 | 0.874 |
| HCC-44 | 1.01 | 0.971 | 0.977 | 0.987 | 0.988 | 0.819 | 0.911 | 0.911 | 0.736 | 0.856 | 0.984 | 1.03 | 1.01 | 1.02 | 0.988 | – | – | – | – | – |
| HCC-15 | 1.06 | 0.99 | 1 | 0.98 | 0.947 | 0.938 | 1.02 | 0.931 | 0.674 | 0.808 | 0.964 | 1.13 | 1.05 | 1.07 | 1.07 | 1.08 | 1.05 | 0.93 | 0.731 | 0.789 |
| NCI-H1975 | 1.02 | 0.927 | 0.89 | 0.943 | 0.985 | 0.861 | 0.642 | 0.665 | 0.623 | 0.598 | 0.867 | 1.07 | 1 | 0.93 | 0.973 | 0.869 | 0.8 | 0.572 | 0.55 | 0.568 |
| NCI-H1651 | 0.973 | 0.89 | 0.963 | 0.951 | 1 | 1.03 | 0.998 | 0.944 | 0.871 | 0.944 | 1.04 | 1.06 | 1.08 | 1.01 | 1.01 | 0.933 | 0.775 | 0.787 | 0.583 | 0.7 |
| NCI-H661 | 1.01 | 1.02 | 0.987 | 0.96 | 1.02 | 0.948 | 1.01 | 0.988 | 1.02 | 0.873 | 0.965 | 1.07 | 0.994 | 1.01 | 0.964 | 0.996 | 1 | 0.981 | 0.94 | 0.904 |
| NCI-H23 | 1.02 | 0.954 | 1.15 | 0.926 | 0.97 | 0.847 | 0.846 | 0.959 | 0.582 | 0.787 | 0.92 | 1.24 | 1.13 | 0.838 | 1.06 | 0.9 | 1.19 | 1.08 | – | 0.872 |
| NCI-H522 | 0.914 | 0.969 | 0.996 | 0.882 | 0.693 | 0.79 | 1.12 | 0.947 | 0.85 | 0.972 | 0.927 | 0.96 | 1.06 | 0.9 | 0.879 | – | – | – | – | – |
| NCI-H1792 | 0.965 | 0.814 | 0.855 | 0.935 | 0.7 | 0.725 | 0.938 | 0.731 | 0.621 | 0.886 | 0.877 | 1.12 | 1.08 | 0.841 | 0.85 | – | – | – | – | – |
